The conditions of data set [1]: cited from earlier work.
In a further data set the test system is rat hepatocytes. As to conditions: cited from earlier work.
In a further data set the test system is mammalian cell mutation. The note with it: cited from earlier work.
For data set [2], the system named is Chinese hamster ovary cells. As to conditions: cited from earlier work.
A further data set relates to Chinese hamsters. As to conditions: cited from earlier work.
The subject of data set [3] is mice. The note with it: cited from earlier work.
A further data set relates to bacterial mutagenesis. As to conditions: with and without metabolic activation; cited from earlier work.
For data set [4] the following is noted: cited from earlier work. This is another data set of the same source.
In data set [5] the test system is women. The note with it: cited from earlier work.
The conditions of data set [6]: cited from earlier work. The source holds these as a separate data set.
Data set [7] has as its system mice. As to conditions: cited from earlier work. This is another data set of the same source.
For the next data set, the system named is rats. The note with it: female rats given 279 mg/kg, 2 years; cited from earlier work.
In the next data set the test system is uterus. The note with it: clinical studies; cited from earlier work.
Data set [8] has as its system women. As to conditions: women taking the drug, MORE trial; cited from earlier work.
A further data set deals with postmenopausal women. The note with it: cited from earlier work.
For data set [9] the following is noted: cited from earlier work. This is another data set of the same source.
The nature of another data set: in vitro. The note with it: human, topical or ocular.
The conditions of data set [10]: oral, cited from earlier work.

≈ marks a conversion by molar mass, not a printed value. Where a name gives a salt, the structure may show the parent alone. Read-outs that look alike come from different tables or passages of the source.

With `O=C(c1ccc(OCCN2CCCCC2)cc1)c1c(-c2ccc(O)cc2)sc2cc(O)ccc12` [Raloxifene.HCl, raloxifene hydrochloride], the “increase in AUC with increasing doses” value in [1] (doses ranging from 30 to 150 mg) is “slightly less than a proportional increase”. In the data set with rat hepatocytes, the “genotoxicity, unscheduled DNA synthesis assay” value is “not genotoxic”. Further, the “genotoxicity, mouse lymphoma assay” value in the data set on mammalian cell mutation was “not genotoxic”. In addition, in [2], the “genotoxicity, chromosomal aberration assay” value is reported as “not genotoxic”. Further, the “genotoxicity, in vivo sister chromatid exchange assay” value in the data set on Chinese hamsters is “not genotoxic”. Moreover, in the data set with mice [3], the “genotoxicity, in vivo micronucleus test” value was “not genotoxic”. The “genotoxicity, Ames test” value in the data set on bacterial mutagenesis is given as “not genotoxic”.

Take `O=C1CC[C@@]2(O)[C@H]3Cc4ccc(O)c5c4[C@@]2(CCN3CC2CC2)[C@H]1O5` [Naltrexone]: in data set [4] (water), the “solubility in water” value was “water soluble”.

As to estrogen, the “VTE rates compared to placebo group” value in the data set with women [5] (estrogen transdermally) is on record as “no significant difference”. Moreover, the “risk of VTE compared to a placebo group” value in the data set with women [5] (oral estrogen, 95 percent CI 1.8-6.8) is on record as 3.5 fold.

`O=C(c1ccc(OCCN2CCCCC2)cc1)c1c(-c2ccc(O)cc2)sc2cc(O)ccc12` [Raloxifene]: the plasma elimination half-life in [1] (after oral dosing) is 27.7 h. In addition, the clearance rate result in data set [1] (following intravenous administration) was “approximating hepatic blood flow”. In addition, the water solubility in [4] (H2O) was 0.25 µg/mL (≈ 0.528 µM). Further, the “log P” value in [6] was 5.749. Also, the “incidence of ovarian tumors” value in the data set with mice [7] (female mice given 9 to 242 mg/kg, 21 months) is reported as “increased incidence”. For the same compound, the “incidence of prostatic leiomyoblastoma” value in the data set on mice [7] (male mice given 210 mg/kg) was “increased incidence”. In the data set with mice [7] (male mice given 41 or 210 mg/kg), the “incidence of testicular interstitial cell tumors, prostatic adenomas, and adenocarcinomas” value is “increased incidence”. The “incidence in ovarian tumors of granulosa/theca cell origin” value in the data set with rats was “increased incidence”. The uterotrophic activity result with uterus is “does not have uterotrophic activity”. In addition, in the data set on women [8], the “incidence of breast cancer compared with controls” value is listed as “lower incidence”. Besides, the “fewer uterine cancers than those assigned to tamoxifen” value with postmenopausal women (STAR trial) is 36%. Moreover, in the data set on postmenopausal women (postmenopausal women, STAR trial interim analysis), the “reduction of risk for invasive breast cancer” value is on record as “approximately 50%”. The “increased incidence of VTE” value in [9] (oral) is on record as 2-4 times. Also, the plasma antithrombin levels result in data set [9] (raloxifene use) is listed as “significant reduction”. The tPA levels entry in data set [9] (raloxifene use) is “significant reduction”. Further, in “in vitro”, the bioavailability at 3 wt % was about 1%. In addition, the absolute bioavailability in data set [10] was 2%; in data set [10] (listed as raloxifene), “approximately 2%”.

These data come from patent US20080139513A1, “TRANSDERMAL DELIVER OF ACTIVE AGENTS” (Novavax, Inc., priority 2006, published 2008).
